Data taken from ChEMBL document CHEMBL4007448, “The derivatives of Pulsatilla saponin A, a bioactive compound from Pulsatilla chinensis: Their synthesis, cytotoxicity, haemolytic toxicity and mechanism of action” (Eur J Med Chem, 2017).
Calls of active or inactive are those of the source. The calls are words filed in the database; no cut-off is given here.

Tests used:
KB = test: Cytotoxicity against human KB cells assessed as reduction in cell viability after 48 hrs by MTT assay; type: functional, cell-based
[1] = Cytotoxicity against human KBVIN cells assessed as reduction in cell viability after 48 hrs by MTT assay; type: functional, cell-based
MDA-MB-231 [2] = test: Cell cycle arrest in human MDA-MB-231 cells assessed as accumulation at G1 phase at 5.5 uM after 24 hrs by propidium iodide staining based flow cytometry; type: functional
A549 = test: Cytotoxicity against human A549 cells assessed as reduction in cell viability after 48 hrs by MTT assay; type: functional, cell-based; conditions: A549, 48 h
MCF7 = test: Cytotoxicity against human MCF7 cells assessed as reduction in cell viability after 48 hrs by MTT assay; type: functional, cell-based; conditions: MCF7, 48 h
[3] = Hemolytic activity against New Zealand rabbit erythrocytes after 60 mins; type: ADME, cell-based, Oryctolagus cuniculus, Erythrocyte; conditions: read-out: HD50
MDA-MB-231 [4] = test: Cytotoxicity against human MDA-MB-231 cells assessed as reduction in cell viability after 48 hrs by MTT assay; type: functional, cell-based; conditions: MDA-MB-231, 48 h
SMMC-7721 = test: Cytotoxicity against human SMMC7721 cells assessed as reduction in cell viability after 48 hrs by MTT assay; type: functional, cell-based; conditions: SMMC-7721, 48 h
BGC-823 = test: Cytotoxicity against human BGC823 cells assessed as reduction in cell viability after 48 hrs by MTT assay; type: functional, cell-based; conditions: BGC-823, 48 h
H22 = test: Antitumor activity against […] xenografted in mouse assessed as tumor growth inhibition at 60 mg/kg/day, ip for 14 days relative to control; type: functional; conditions: 336 h, read-out: TGI
Mus musculus [5] = test: Toxicity in mouse xenografted with […] assessed as hematuria at 60 mg/kg/day, ip for 14 days; type: organism-based; conditions: in vivo, 336 h
Blood = test: Drug metabolism in mouse blood assessed as Pulsatilla saponin A formation at 60 mg/kg/day, ip for 14 days; type: ADME, organism-based; conditions: in vivo, 336 h
Mus musculus [6] = test: Toxicity in mouse xenografted with […] assessed as death at 60 mg/kg/day, ip for 14 days; type: organism-based; conditions: in vivo, 336 h

Row | Compound | IC50 (A549) | HC50 at 1 h [3] | IC50 (SMMC-7721) | IC50 (BGC-823) | other results
1 | COC(=O)CCN1CCN(C(=O)[C@]23CCC(C)(C)C[C@H]2C2=CC[C@@H]4[C@@]5(C)CC[C@H](OC(C)=O)[C@@](C)(COC(C)=O)[C@@H]5CC[C@@]4(C)[C@]2(C)CC3)CC1 | 4.69 µM | > 500 µM | – | – | IC50 (KB): 5.08 µM; IC50 [1]: 5.25 µM; Activity (MDA-MB-231 [2]): Active; IC50 (MCF7): 10.7 µM; IC50 (MDA-MB-231 [4]): 5.54 µM
2 | C[C@H]1O[C@@H](O[C@H]2[C@H](O[C@H]3CC[C@@]4(C)[C@@H](CC[C@]5(C)[C@@H]4CC=C4[C@@H]6CC(C)(C)CC[C@]6(C(=O)NCCCCC(=O)O)CC[C@]45C)[C@]3(C)CO)OC[C@H](O)[C@@H]2O)[C@H](O)[C@H](O)[C@H]1O | > 100 µM | 228 µM | 26.8 µM | 67.8 µM | –
3 | C[C@H]1O[C@@H](O[C@H]2[C@H](O[C@H]3CC[C@@]4(C)[C@@H](CC[C@]5(C)[C@@H]4C(=O)C=C4[C@@H]6CC(C)(C)CC[C@]6(C(=O)NCC(=O)O)CC[C@]45C)[C@]3(C)CO)OC[C@H](O)[C@@H]2O)[C@H](O)[C@H](O)[C@H]1O | > 100 µM | 461 µM | 46.7 µM | 93.7 µM | –
4 | C[C@H]1O[C@@H](O[C@H]2[C@H](O[C@H]3CC[C@@]4(C)[C@@H](CC[C@]5(C)[C@@H]4CC=C4[C@@H]6CC(C)(C)CC[C@]6(C(=O)OCCCCCCO[N+](=O)[O-])CC[C@]45C)[C@]3(C)CO)OC[C@H](O)[C@@H]2O)[C@H](O)[C@H](O)[C@H]1O | 65.2 µM | 3.79 µM | 15.4 µM | 33.1 µM | –
5 | C[C@H]1O[C@@H](O[C@H]2[C@H](O[C@H]3CC[C@@]4(C)[C@@H](CC[C@]5(C)[C@@H]4CC=C4[C@@H]6CC(C)(C)CC[C@]6(C(=O)NCC(=O)NCC(=O)O)CC[C@]45C)[C@]3(C)CO)OC[C@H](O)[C@@H]2O)[C@H](O)[C@H](O)[C@H]1O | > 100 µM | > 500 µM | 57.8 µM | 76.3 µM | –
6 | C[C@H]1O[C@@H](O[C@H]2[C@H](O[C@H]3CC[C@@]4(C)[C@@H](CC[C@]5(C)[C@@H]4CC(=O)[C@@H]4[C@@H]6CC(C)(C)CC[C@]6(C(=O)O)CC[C@]45C)[C@]3(C)CO)OC[C@H](O)[C@@H]2O)[C@H](O)[C@H](O)[C@H]1O | 91 µM | 190 µM | 53.8 µM | 77.2 µM | –
7 | C[C@H]1O[C@@H](O[C@H]2[C@H](O[C@H]3CC[C@@]4(C)[C@@H](CC[C@]5(C)[C@@H]4CC=C4[C@@H]6CC(C)(C)CC[C@]6(C(=O)NCCCCCC(=O)O)CC[C@]45C)[C@]3(C)CO)OC[C@H](O)[C@@H]2O)[C@H](O)[C@H](O)[C@H]1O | > 100 µM | 393 µM | 27.4 µM | 65.5 µM | –
8 | C[C@H]1O[C@@H](O[C@H]2[C@H](O[C@H]3CC[C@@]4(C)[C@@H](CC[C@]5(C)[C@@H]4CC=C4[C@@H]6CC(C)(C)CC[C@]6(C(=O)NCCCC(=O)O)CC[C@]45C)[C@]3(C)CO)OC[C@H](O)[C@@H]2O)[C@H](O)[C@H](O)[C@H]1O | 98.7 µM | 313 µM | 27.3 µM | 70.2 µM | –
9 | C[C@H]1O[C@@H](O[C@H]2[C@H](O[C@H]3CC[C@@]4(C)[C@@H](CC[C@]5(C)[C@@H]4CC(O)[C@]46OC(=O)[C@@]7(CCC(C)(C)C[C@H]74)CC[C@@]56C)[C@]3(C)CO)OC[C@H](O)[C@@H]2O)[C@H](O)[C@H](O)[C@H]1O (stereo partly drawn) | > 100 µM | 77.7 µM | 56.6 µM | 81.9 µM | –
10 | CC1(C)CC[C@]2(C(=O)N3CCN(CCC(=O)O)CC3)CC[C@]3(C)C(=CC[C@@H]4[C@@]5(C)CC[C@H](O)[C@@](C)(CO)[C@@H]5CC[C@]43C)[C@@H]2C1 | 31.5 µM | > 500 µM | – | – | IC50 (KB): 15 µM; IC50 [1]: > 40 µM; IC50 (MCF7): > 40 µM; IC50 (MDA-MB-231 [4]): 32.9 µM
11 | CC(=O)OC[C@@]1(C)[C@@H]2CC[C@]3(C)[C@H](CC=C4[C@@H]5CC(C)(C)CC[C@]5(C(=O)O)CC[C@]43C)[C@@]2(C)CC[C@@H]1O[C@@H]1OC[C@H](OC(C)=O)[C@H](OC(C)=O)[C@H]1O[C@@H]1O[C@H](C)[C@H](OC(C)=O)[C@@H](OC(C)=O)[C@H]1OC(C)=O | 72.1 µM | – | 69.9 µM | 74 µM | –
12 | CC(=O)OC[C@@]1(C)[C@@H]2CC[C@]3(C)[C@H](CC(O)[C@]45OC(=O)[C@@]6(CCC(C)(C)C[C@H]64)CC[C@@]35C)[C@@]2(C)CC[C@@H]1O[C@@H]1OC[C@H](OC(C)=O)[C@H](OC(C)=O)[C@H]1O[C@@H]1O[C@H](C)[C@H](OC(C)=O)[C@@H](OC(C)=O)[C@H]1OC(C)=O (stereo partly drawn) | > 100 µM | – | 90.2 µM | > 100 µM | –
13 | C[C@H]1O[C@@H](O[C@H]2[C@H](O[C@H]3CC[C@@]4(C)[C@@H](CC[C@]5(C)[C@@H]4CC(=O)[C@]46OC(=O)[C@@]7(CCC(C)(C)C[C@H]74)CC[C@@]56C)[C@]3(C)CO)OC[C@H](O)[C@@H]2O)[C@H](O)[C@H](O)[C@H]1O | > 100 µM | > 500 µM | 70.6 µM | 80.3 µM | –
14 | C[C@H]1O[C@@H](O[C@H]2[C@H](O[C@H]3CC[C@@]4(C)[C@@H](CC[C@]5(C)[C@@H]4C(=O)C=C4[C@@H]6CC(C)(C)CC[C@]6(C(=O)O)CC[C@]45C)[C@]3(C)CO)OC[C@H](O)[C@@H]2O)[C@H](O)[C@H](O)[C@H]1O | > 100 µM | > 500 µM | 58.8 µM | 82.6 µM | –
15 | CC1(C)CC[C@]2(C(=O)O)CC[C@]3(C)C(=CC[C@@H]4[C@@]5(C)CC[C@H](O)[C@@](C)(CO)[C@@H]5CC[C@]43C)[C@@H]2C1 [HEDERAGENIN] | 10.2 µM | > 200 µM | – | – | IC50 (KB): 14.6 µM; IC50 [1]: 27.9 µM; IC50 (MCF7): 39.4 µM; IC50 (MDA-MB-231 [4]): 36.6 µM
16 | C[C@H]1O[C@@H](O[C@H]2[C@H](O[C@H]3CC[C@@]4(C)[C@@H](CC[C@]5(C)[C@@H]4C/C(=N/O)[C@@H]4[C@@H]6CC(C)(C)CC[C@]6(C(=O)O)CC[C@]45C)[C@]3(C)CO)OC[C@H](O)[C@@H]2O)[C@H](O)[C@H](O)[C@H]1O | > 100 µM | > 500 µM | 69.4 µM | 95.6 µM | –
17 | C[C@H]1O[C@@H](O[C@H]2[C@H](O[C@H]3CC[C@@]4(C)[C@@H](CC[C@]5(C)[C@@H]4CC(=O)[C@@H]4[C@@H]6CC(C)(C)CC[C@]6(C(=O)NCC(=O)O)CC[C@]45C)[C@]3(C)CO)OC[C@H](O)[C@@H]2O)[C@H](O)[C@H](O)[C@H]1O | 95.8 µM | 339 µM | 44 µM | 86.1 µM | –
18 | C[C@H]1O[C@@H](O[C@H]2[C@H](O[C@H]3CC[C@@]4(C)[C@@H](CC[C@]5(C)[C@@H]4CC=C4[C@@H]6CC(C)(C)CC[C@]6(C(=O)OCCO[N+](=O)[O-])CC[C@]45C)[C@]3(C)CO)OC[C@H](O)[C@@H]2O)[C@H](O)[C@H](O)[C@H]1O | 80.2 µM | 16.2 µM | 17.8 µM | 33.1 µM | –
19 | C[C@@H]1O[C@@H](O[C@H]2[C@H](O[C@H]3CC[C@@]4(C)[C@@H](CC[C@]5(C)[C@@H]4CC=C4[C@@H]6CC(C)(C)CC[C@]6(C(=O)NCC(=O)O)CC[C@]45C)[C@]3(C)CO)OC[C@H](O)[C@@H]2O)[C@H](O)[C@@H](O)[C@H]1O | – | – | – | – | inhibition in vivo at 60 mg/kg/day (H22): 35.6%; Activity (Mus musculus [5]): Non-Toxic; Drug metabolism (Blood): Metabolite_Notdetected; Activity (Mus musculus [6]): Non-Toxic
20 | C[C@@H]1O[C@@H](O[C@H]2[C@H](O[C@H]3CC[C@@]4(C)[C@@H](CC[C@]5(C)[C@@H]4CC=C4[C@@H]6CC(C)(C)CC[C@]6(C(=O)O)CC[C@]45C)[C@]3(C)CO)OC[C@H](O)[C@@H]2O)[C@H](O)[C@@H](O)[C@H]1O | 18.6 to 20.9 µM | 3.86 µM | 12.2 µM | 14.6 µM | IC50 (KB): 20.7 µM; IC50 [1]: 19.6 µM; IC50 (MCF7): 22.2 µM; IC50 (MDA-MB-231 [4]): 17.8 µM
21 | C[C@H]1O[C@@H](O[C@H]2[C@H](O[C@H]3CC[C@@]4(C)[C@@H](CC[C@]5(C)[C@@H]4CC=C4[C@@H]6CC(C)(C)CC[C@]6(C(=O)OCCCCO[N+](=O)[O-])CC[C@]45C)[C@]3(C)CO)OC[C@H](O)[C@@H]2O)[C@H](O)[C@H](O)[C@H]1O | 84.5 µM | 14.9 µM | 22.1 µM | 66.5 µM | –
